Test results reported in US4657897A, “N^6 -substituted adenosines for treating pain” (Warner-Lambert Company, priority 1985, dated 1987).

Tests used:
[1] = Mouse Activity and Screen Test (MAST), inhibition of locomotion (LI); format: in vivo, mouse (Swiss-Webster, male); details: one hour data
Experimental: (§1) Treatments are administered intraperitoneally one hour prior to testing. […] Compounds are dissolved or suspended in 0.2% Methocel. Control animals are injected with Methocel.
Immediately following the screen test, the final phase of testing is initiated by placing each group of three mice in one actophotometer (Life Sciences, 22, 1067-1076, 1978). The actophotometer consists of a cylindrical chamber whose center is occupied by another cylinder which contains the illumination for six photocells located on the perimeter of the chamber. Six light-beam interruptions equal one count. Locomotor activity is recorded by computer at ten minute intervals for 60 minutes.
(§2) The compounds are identified in the Examples.

[2] = Antihypertensive evaluation (AHP3), aortic blood pressure and heart rate in conscious rats; format: in vivo, rat
Experimental: This test procedure is described in the following paragraphs.
The continuous monitoring of pulsatile blood pressure (BP) from unrestrained conscious rats surgically equipped witth polyethylene cannulas was accomplished by means of a computer assisted data capture scheme (CADCS). The basic elements of the methodology are the cannulation procedure and the CADCS.
Rats were anesthetized with Telazol (1:1 tiletamine HCl and zolazepam HCl); 20-40 mg/kg IM and the descending aorta exposed via a midline incision. Cannulas fabricated from polyethylene tubing were inserted into the aorta via an undersized puncture hole below the renal arteries. The puncture hole was made by a 23 G disposable needle with a section of the aorta clamped off above and below the puncture site. The cannulas, consisting of a PE100 (0.86 mm ID) body and a PE50 (0.58 mm ID) tip, were attached to a trocar, inserted through the psoas muscle, and passed subcutaneously along the midline of the back and externalized between the ears. The cannulas were anchored to the psoas muscle and between the scalulae (3-0 green braided suture). The midline incision was closed in two steps (muscle first, skin second) using continuous over-and over sutures (4-0 chronic). Each rat was then given penicillin 30,000 units subcutaneously (Penicillin G Procaine Sterile Suspension).
The rats were fitted with a harness-spring-swivel assembly designed to protect the cannula and to provide the rat relative freedom of movement. The harnesses were fabricated from nylon hook and loop tape cemented to a metal plate to which spring wires (18-8 stainless steel), were attached to brass swivels. Each polyethylene cannula was channeled through a spring and connected through a swivel to a pressure transducer (Model P23Gb; Statham Instruments; Hato Rey, Puerto Rico) and an infusion pump (Sage model 234-7; Orion Research, Cambridge, MA) by means of PE100 tubing. While on test, each rat received a continuous slow infusion of heparinized saline solution (approximately […] or 40 units of heparin per 24 hour period) to prevent clot formation. Additional "flushes" of the cannula with heparinized saline were carried out when the aortic pulse pressure (systolic minus diastolic) was less than 25 mm Hg.
The pulsatile blood pressure and heart rate of each of 32 rats was monitored every minute by means of two in-laboratory microcomputers communicating directly with a data concentrator computer. The data were first stored on the data concentrator disk and then transferred to a magnetic tape for analysis and report generation by the main research computer. The overall scheme involved modulating the primary signal from the pressure transducer, generating the primary data set of the one-minute values for systolic, diastolic, and mean blood pressures and heart rate by the in-lab microcomputer and the storage, analysis, and report generation by the main reserach computer.
The transducers were connected to analog signal conditioning modules. The modules provided a regulated excitation voltage for the transducers, amplification as required to interface the microprocessors and an active low pass filter to compensate for the pressure wave form distortion produced by the flexible, fluid filled, narrow cannula. The distortion was 22-26 Hz and this provided a reliable estimate of both systolic and diastolic blood pressure.
The microcomputers (one for each of two groups of 16 rats) were connected to the input components through the module interface units, an analog-to-digital converter for the pressure wave form signal and the digital inputs for the dose and event marker switches. The microcomputer controlled the sequential acquisition of data from the modular interface units through an internal synchronous time-of-day clock/time base generator. Utilizing the time base generator as a reference, the blood pressure values and the marker switch status for each of the 32 stations were sampled every ten msec. […]

[3] = tested on: rat heart; test: Coronary blood flow (PCS2A), isolated perfused rat heart; design: species or system rat (male); details: read-out: effect on heart rate (HR)
Experimental: Male rats (400-600 gms) are pretreated with Na heparin 2000 units and anesthetized with Na pentobarbital (50 mg/kg) administered intraperitoneally. Once anesthetized, the rat heart is rapidly excised, the ascending aorta fitted to the aortic perfusion cannula, and secured with a ligature. The coronary arteries are perfused initially at a rate of about 15 ml/min for two to three minutes, afterwhich they are perfused at constant pressure of 70 mm Hg and temperature of 37° C. The electrocardiogram (ECG) is recorded using two platinum electrodes positioned at the base and apex of the left ventricle. A second heart is excised, cannulated, and perfused by the same method outlined above. Both hearts are tested in parallel. The standard physiological salt solution (PSS) is a modified Krebs-Hanseleit bicarbonate buffer of the following composition in mM concentration: NaCl, 127; NaHCO3, 25; dextrose, 5.5; Na Pyruvate, 2.0; KCl, 4.7; MgSO4, 1.1; KH 2PO4, 1.2; CaCl2.2H2 O, 2.5; CaNa2 EDTA, 0.05.
A 30-minute stabilization period is observed before starting the test protocol.
The microprocessor control system is a servo mechanism which permits coronary perfusion pressure (CPP) and drug concentration to be maintained constant independent of changes in coronary flow. The level at which CPP and drug concentration are maintained can be changed by commands communicated through the microprocessor keyboard. Dose-response curves are carried out by perfusing concentrated drug solution (DC) at rates proportional to total coronary flow (CFT). Drug concentrations are increased by proportionate increases in the rate of DC infusion over CFT via the microprocessor keyboard. The proportional flow rates for DC:CFT is about 0.0002:1 at the low end and 0.02:1 at the high end of the dose-response curve. Dose-response curves encompassing at least two log doses are carried out by preparing two DCs with a concentration difference of 1:100. Following the first dose range of two log doses, the DC are switched, proportional pumping rate adjusted, and the dose-responsecurve continued for another two log doses. The standard dose-response curve is carried out in one-half log dose increments starting at a subthreshold dose and ending at a dose which produces near maximal response in activity. Standard reference compounds are tested over the range of 10^-9 to 10^-6 M.
Measurements are for heart rate (HR) and coronary flow (CF). Units are: HR, beats/minute (bpm) and CF, milliliters/minute (ml/min). HR is calculated from the ECG strip chart recording and CF is calculated by recording analog outputs from pumps 1 and 2. Outputs from pump #1=CFT and the output from pump #2=CF for heart B (CFB). CF for heart A (CFA) is calculated (CFT -CFB =CFA).

[4] = Mouse Activity and Screen Test (MAST), screen test failure (ST); format: in vivo, mouse (Swiss-Webster, male); details: Mus musculus, ip, 1 h, read-out: MAST ST LAD
Experimental: as §1, §2

**Q.** For `OC[C@H]1O[C@@H](n2cnc3c(NCC(c4ccccc4)c4ccccc4)ncnc32)[C@H](O)[C@@H]1O` [Example 1, N^6-(2,2-Diphenylethyl)adenosine], which “Inhibition of mouse locomotor activity” value ([1]; 10 mg/kg intraperitoneal) is on record?
**A.** 92%

**Q.** What about the “Inhibition of mouse locomotor activity” value ([1]; 30 mg/kg intraperitoneal) of the same compound?
**A.** 93%

**Q.** What about the “Inhibition of mouse locomotor activity” value ([1]; 100 mg/kg intraperitoneal) of the same compound?
**A.** 94%

**Q.** What about the “change in MAP (decrease)” value ([2]; 1 mg/kg) of the same compound?
**A.** 16%

**Q.** And the “change in heart rate (HR increase)” value ([2]; 1 mg/kg)?
**A.** < 20%

**Q.** And the “change in MAP (decrease)” value ([2]; 3 mg/kg)?
**A.** 20%

**Q.** What about the “change in heart rate (HR increase)” value ([2]; 3 mg/kg) of the same compound?
**A.** < 20%

**Q.** What about the “change in MAP (decrease)” value ([2]; 10 mg/kg) of the same compound?
**A.** 20%

**Q.** And the “change in heart rate (HR increase)” value ([2]; 10 mg/kg)?
**A.** < 20%

**Q.** And the “change in MAP (decrease)” value ([2]; 30 mg/kg)?
**A.** 35%

**Q.** And the “change in heart rate (HR increase)” value ([2]; 30 mg/kg)?
**A.** < 20%

**Q.** What about the activation at 0.001 µM [3] of the same compound?
**A.** 1%

**Q.** And the activation at 0.003 µM [3]?
**A.** 3%

**Q.** What about the activation at 0.01 µM [3] of the same compound?
**A.** -1%

**Q.** What about the activation at 0.1 µM [3] of the same compound?
**A.** -13%

**Q.** What about the activation at 1 µM [3] of the same compound?
**A.** -47%

**Q.** What about the minimal effective dose [4] of the same compound?
**A.** > 100 mg/kg
